Target: T1, SauBCA (β-carbonic anhydrase from Staphylococcus aureus) (Staphylococcus aureus, UniProt A0AAJ4SIE8)
T1 sequence (A0AAJ4SIE8 1-189): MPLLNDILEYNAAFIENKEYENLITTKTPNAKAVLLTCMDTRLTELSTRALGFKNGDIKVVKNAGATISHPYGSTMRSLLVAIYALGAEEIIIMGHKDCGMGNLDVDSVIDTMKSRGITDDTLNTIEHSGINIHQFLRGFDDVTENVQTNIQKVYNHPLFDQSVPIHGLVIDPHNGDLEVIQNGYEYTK
Assay: Stopped-flow CO2 hydration inhibition assay, SauBCA
Assay type: biochemical
Conditions: Ki SauBCA, recombinant SauBCA, stopped-flow CO2 hydration, mean from three assays, errors ±5–10%
Description: An Applied Photophysics stopped-flow instrument was used for assaying CA-catalysed CO2 hydration activity. […] Six traces of the initial 5 − 10% of the reaction were used to determine the initial velocity. The uncatalysed rates were determined in the same manner and subtracted from the total observed rates. A stock solution of inhibitor (0.1 mM) was prepared in distilled-deionized water, and dilutions of up to 0.01 nM were prepared thereafter with distilled-deionized water. Inhibitor (I) and enzyme (E) solutions were preincubated together for 15 min at RT prior to the assay to allow formation of the E − I complex. Inhibition constants were obtained by using the Cheng-Prusoff equation and nonlinear least squares methods (with PRISM 3) and are presented as the means from at least three different determinations. Kinetic constants were obtained using Lineweaver-Burke plots as reported earlier.

Compound | Ki [nM]
Nc1ccc(S(N)(=O)=O)cc1 [compound 2] | 409

Same assay, conditions: read-out: Ki SauBCA

Ki [nM] | Compound
815 | CCN[C@H]1CN(CCCOC)S(=O)(=O)c2sc(S(N)(=O)=O)cc21 [BRZ, brinzolamide]
871 | Cc1ccc(-c2cc(C(F)(F)F)nn2-c2ccc(S(N)(=O)=O)cc2)cc1 [CLX, celecoxib]
863 | CC(=O)/N=c1/sc(S(N)(=O)=O)nn1C [MZA, methazolamide]
466 | CC1(C)O[C@@H]2[C@@H](CO[C@@]3(COS(N)(=O)=O)OC(C)(C)O[C@@H]23)O1 [TPM]
509 | Cc1onc(-c2ccccc2)c1-c1ccc(S(N)(=O)=O)cc1 [VLX]
4550 | NS(=O)(=O)Cc1noc2ccccc12 [ZNS, zonisamide]
909 | Nc1nccc(Nc2ccc(S(N)(=O)=O)cc2)n1 [compound 19]

Same assay, conditions: recombinant SauBCA, stopped-flow CO2 hydration, mean from three assays, errors ±5–10%; read-out: Ki SauBCA

Compound | Ki [nM]
NS(=O)(=O)NCCNc1nonc1C(=NO)Nc1ccc(F)c(Br)c1 [EPA, epacadostat] | 538
O=C1NS(=O)(=O)c2ccccc21 [SAC] | 667
NS(=O)(=O)c1cccc(S(N)(=O)=O)c1 [compound 3] | 95
Cc1ccc(S(N)(=O)=O)cc1 [compound 4] | 83
NCc1ccc(S(N)(=O)=O)cc1 [compound 5] | 193
Nc1ccc(S(N)(=O)=O)cc1Cl [compound 8] | 95
Nc1ccc(S(N)(=O)=O)cc1Br [compound 9] | 75
NS(=O)(=O)c1cc(Cl)cc(Cl)c1O [compound 10] | 202
Nc1nnc(S(N)(=O)=O)s1 [compound 13] | 417
NS(=O)(=O)c1ccc(CO)cc1 [compound 16] | 603
Nc1ccc(S(=O)(=O)Nc2nnc(S(N)(=O)=O)s2)cc1 [compound 20] | 92
NS(=O)(=O)c1ccc(CCNS(=O)(=O)c2ccc([N+](=O)[O-])cc2CO)cc1 [compound 21] | 85
Nc1ccc(S(=O)(=O)Nc2ccc(S(N)(=O)=O)cc2)cc1 [compound 22] | 83
Nc1ccc(S(=O)(=O)NCc2ccc(S(N)(=O)=O)cc2)cc1 [compound 23] | 92
Nc1ccc(S(=O)(=O)NCCc2ccc(S(N)(=O)=O)cc2)cc1 [compound 24] | 96

Target: hCA II
Assay: not given
Conditions: human recombinant isozyme, Table 2; cited from earlier work

Compound | Ki [nM]
NS(=O)(=O)NCCNc1nonc1C(=NO)Nc1ccc(F)c(Br)c1 [EPA, epacadostat] | 917
NC(N)=Nc1nc(CSCCC(N)=NS(N)(=O)=O)cs1 [FAM, famotidine] | 58

Reference: PMC7534311, “Sulphonamide inhibition profile of Staphylococcus aureus β-carbonic anhydrase” (Journal of Enzyme Inhibition and Medicinal Chemistry, 2020)
